Measured values taken from US7683168B2, “Compositions of novel opioid compounds and method of use thereof” (priority 2005, dated 2010).
pEC50, pKi: −log10 of the molar value.

Key:
[1] = biological target: T1, δ opioid receptor (Rattus norvegicus, UniProt P33533); assay: radioligand binding, δ opioid receptor, rat brain membranes; conditions: cell marked (rat), tritium-labeled Deltorphin II
T1 construct: tissue Pel-Freeze Biological Inc. (Rogers, Ark.); host or cells: rat whole brain

[2] = biological target: T2, μ opioid receptor (Rattus norvegicus, UniProt P33535); assay: radioligand binding, μ opioid receptor, rat brain membranes; conditions: cell marked (rat), tritium-labeled DAMGO
T2 construct: tissue Pel-Freeze Biological Inc. (Rogers, Ark.); host or cells: rat whole brain
T2 sequence (P33535 whole entry): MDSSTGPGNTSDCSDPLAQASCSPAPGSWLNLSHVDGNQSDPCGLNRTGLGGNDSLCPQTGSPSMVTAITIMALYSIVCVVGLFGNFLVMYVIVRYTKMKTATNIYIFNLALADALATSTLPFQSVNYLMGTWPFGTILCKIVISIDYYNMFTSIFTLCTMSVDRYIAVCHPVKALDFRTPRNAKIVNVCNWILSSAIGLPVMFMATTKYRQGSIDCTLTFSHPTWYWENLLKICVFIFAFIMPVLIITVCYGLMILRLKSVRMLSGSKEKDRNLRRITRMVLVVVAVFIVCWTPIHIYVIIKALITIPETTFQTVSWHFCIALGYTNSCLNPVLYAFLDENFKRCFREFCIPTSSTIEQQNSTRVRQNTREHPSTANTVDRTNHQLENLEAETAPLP

[3] = biological target: T3, κ opioid receptor (Cavia porcellus, UniProt P41144); assay: radioligand binding, κ opioid receptor, guinea pig cerebellum; conditions: tritium-labeled U69593
T3 construct: tissue Pel-Freeze Biological Inc. (Rogers, Ark.); host or cells: guinea pig cerebellum
T3 sequence (P41144 whole entry): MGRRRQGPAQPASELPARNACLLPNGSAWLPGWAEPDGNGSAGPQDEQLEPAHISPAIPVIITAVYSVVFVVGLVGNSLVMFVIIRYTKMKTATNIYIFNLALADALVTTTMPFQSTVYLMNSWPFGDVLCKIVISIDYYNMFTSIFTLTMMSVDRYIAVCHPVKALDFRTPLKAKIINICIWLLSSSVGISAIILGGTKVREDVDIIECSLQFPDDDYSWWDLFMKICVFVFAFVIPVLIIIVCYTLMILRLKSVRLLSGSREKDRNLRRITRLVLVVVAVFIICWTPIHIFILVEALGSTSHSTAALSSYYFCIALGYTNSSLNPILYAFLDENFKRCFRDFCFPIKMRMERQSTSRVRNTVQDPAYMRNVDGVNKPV

[4] = test system: mouse vas deferens; assay: electrically stimulated mouse vas deferens (MVD) ED50; assay type: cell-based; conditions: ED50, inhibition of electrically induced contractions
[5] = test system: seizure-like convulsions in mice; assay: mouse seizure-like convulsions; assay type: in vivo
In short: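 Male CD-1 mice (Charles River, Raleigh, N.C.) of 20-25 g were dosed and watched for one hour to detect seizure-like convulsions mediated by central delta receptors. An event was counted when clonic or tonic/clonic muscle movements involved the whole body, usually followed by brief catalepsy, judged by no attempt to withdraw front paws from a bar 2-3 inches above the floor.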

[6] = test system: tail-pinch antinociception in mice; conditions: in vivo; for mouse TP % MPE: iv, 10 mg/kg
[7] = rat analgesia; assay type: in vivo
[8] = test system: guinea pig ileum; assay: electrically stimulated guinea pig ileum (GPI) ED50; assay type: cell-based; conditions: Cavia porcellus; ED50, inhibition of electrically induced contractions
Description: Further the compounds of formula (1) were evaluated for in vitro opioid receptor activity in various receptor systems, including mouse vas deferens (Mouse Vas Deferens ED50), and guinea pig ileum (Guinea Pig Ileum ED50). The assay procedures used for such determinations of receptor activity are set out below.
Intact ileums (about 3 cm length) were removed from guinea pig and suspended with 1 g of tension in a bath chamber as described for the vasa deferentia. The ileums were stimulated with electrical square-wave pulses of 0.1-Hz, 1 msec pulse duration at supramaximal voltage.
The ED50 values were extrapolated from curves showing the dose concentration plotted against the response (J. A. H. Lord, A. A. Waterfield, J. Hughes, H. W. Kosterlitz, Nature 267, 495, (1977)).

T1 sequence (P33533 whole entry): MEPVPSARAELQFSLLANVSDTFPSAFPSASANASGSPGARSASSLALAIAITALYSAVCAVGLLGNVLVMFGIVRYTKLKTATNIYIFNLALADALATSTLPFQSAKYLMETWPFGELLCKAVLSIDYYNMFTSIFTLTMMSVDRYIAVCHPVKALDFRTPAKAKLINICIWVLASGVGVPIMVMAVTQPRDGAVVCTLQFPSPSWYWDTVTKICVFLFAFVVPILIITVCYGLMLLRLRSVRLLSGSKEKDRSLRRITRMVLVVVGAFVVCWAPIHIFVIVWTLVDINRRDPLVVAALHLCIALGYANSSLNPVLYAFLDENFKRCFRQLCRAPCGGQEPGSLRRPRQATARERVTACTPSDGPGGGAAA

Row | Structure (SMILES) | pKi [1] | pKi [2] | pKi [3] | pEC50 [4] | Seiz. ([5]; 10 mg/kg IV) | mouse TP % MPE [6] | rat analg. [7] | pEC50 [8] | Seiz. ([5]; 20 mg/kg IV) | Seiz. ([5]; 200 mg/kg PO) | Seiz. ([5]; 100 mg/kg SC) | maximum time of response in tail-pinch assay ([6]; mouse) [s]
1 | C=CCN1C[C@H](C)N(C(c2cccc(O)c2)c2cccc(C(=O)N3CCCN(C)CC3)c2)C[C@H]1C (some centres unmarked) | 8.26 | 8.80 | 8.71 | 7.58 | 0% | 0% 10 mg/kg IV (mouse TP- 54% MPE; no rat analg.) | no rat analg. | – | – | – | – | –
2 | C=CCN1C[C@H](C)N([C@@H](c2cccc(O)c2)c2cccc(C(=O)N3CCCN(CCC(=O)OCC)CC3)c2)C[C@H]1C | 9.24 | 9.26 | 8.96 | 8.25 | 30% 10 mg/kg IV | – | – | 6.95 | – | – | – | –
3 | C=CCN1C[C@H](C)N([C@@H](c2cccc(O)c2)c2cccc(C(=O)N3CCCN(CCC(=O)O)CC3)c2)C[C@H]1C | 8.52 | 8.41 | 8.01 | 8.27 | 0% 10 mg/kg IV | – | – | 6.93 | – | – | – | –
4 | CCOC(=O)CCN1CCCN(C(=O)c2cccc([C@H](c3cccc(O)c3)N3C[C@@H](C)N(Cc4ccccc4)C[C@@H]3C)c2)CC1 | 8.92 | 9.12 | 8.53 | 8.82 | 80% 10 mg/kg IV (42% MPE mouse TP) | 80% 10 mg/kg IV (42% MPE mouse TP) | – | 6.08 | – | – | – | –
5 | C[C@@H]1CN([C@@H](c2cccc(O)c2)c2cccc(C(=O)N3CCCN(CCC(=O)O)CC3)c2)[C@@H](C)CN1Cc1ccccc1 | 8.40 | 8.41 | 5.42 | 9.28 | – | – | – | 7.28 | 0% 200 mg/kg PO 0% 20 mg/kg IV | 0% 200 mg/kg PO 0% 20 mg/kg IV | – | –
6 | C=CCN1C[C@H](C)N([C@@H](c2cccc(O)c2)c2cccc(C(=O)N3CCCN(CCCC(=O)OCC)CC3)c2)C[C@H]1C | 8.78 | 8.75 | 8.91 | 7.65 | 0% 10 mg/kg IV | – | – | 6.70 | – | – | – | –
7 | C=CCN1C[C@H](C)N([C@@H](c2cccc(O)c2)c2cccc(C(=O)N3CCCN(CCCC(=O)O)CC3)c2)C[C@H]1C | 8.56 | 8.25 | 7.79 | 8.66 | 0% 10 mg/kg IV | – | – | 6.73 | – | – | – | –
8 | C=CCN1C[C@H](C)N([C@@H](c2cccc(O)c2)c2cccc(C(=O)N3CCCN(CCCCC(=O)OCC)CC3)c2)C[C@H]1C | 8.54 | 8.90 | 9.22 | 7.36 | 0% 10 mg/kg IV | – | – | 6.64 | – | – | – | –
9 | C=CCN1C[C@H](C)N(C(c2ccc(C(=O)N3CCCN(CCCC(=O)OCC)CC3)cc2)c2cccc(O)c2)C[C@H]1C (some centres unmarked) | 8.72 | 8.59 | 8.92 | 8.84 | 0% 10 mg/kg IV | – | – | 6.28 | – | – | – | –
10 | C=CCN1C[C@H](C)N(C(c2ccc(C(=O)N3CCCN(CCCC(=O)O)CC3)cc2)c2cccc(O)c2)C[C@H]1C (some centres unmarked) | 8.40 | 7.79 | 7.53 | 9.02 | 0% 10 mg/kg IV 0% 100 mg/kg SC | – | – | 6.36 | – | – | 0% 10 mg/kg IV 0% 100 mg/kg SC | –
11 | CN1CC[C@]23c4c5ccc(O)c4O[C@H]2[C@@H](O)C=C[C@H]3[C@H]1C5 [morphine, reference compound] | – | – | – | – | – | – | – | – | – | – | – | 20
